Test results from patent US11331288B2, “Conditioning irradiated tissue for increasing vascularity” (THE BOARD OF TRUSTEES OF THE LELAND STANFORD JUNIOR …, priority 2017, dated 2022).

Columns and labels:
irradiated scalp = experiment: Laser Doppler analysis of perfusion of irradiated scalp, DFO injected beneath the dermis (Example 1); assay type: in vivo, mice
Protocol: (§1) Adult 60-day-old male Crl:NU-Fox1^NU immunocompromised mice were used for experiments in this study. Twelve mice were treated with a total of 30 Gy external beam radiation, delivered as six fractionated doses of 5 Gy each over 12 days, followed by 5 weeks of recovery. An additional six non-irradiated mice were used as healthy controls for laser Doppler analysis (LDA) and skin analysis. Irradiated mice were divided into two treatment groups: a DFO experimental group and saline control group. Following recovery, mice underwent injection of either DFO (1 mg in 100 μl saline) or 100 μl of saline alone beneath the dermis every other day for a total of seven treatments.
(§2) After irradiation, fat grafting was performed on the irradiated mice. After informed consent was obtained, lipoaspirate was obtained from three healthy female donors, with no other medical co-morbidities under an approved IRB protocol #2188. Lipoaspirate was allowed to settle for 15 minutes for layers to separate by gravity sedimentation, and then oil and blood layers were removed by vacuum aspiration. The remaining fat layer was centrifuged at 1300 rcf for 3 minutes at 4° C. Any remaining oil and blood was again removed and the remaining fat was transferred into 1 cc syringes for injection through a 14-gauge needle. Fat grafting was performed beneath the scalp by creating a subcutaneous tunnel with the needle and then injecting 200 μl of lipoaspirate in retrograde fashion while pulling the needle out.
Laser Doppler Analysis (“LDA”) was performed to measure perfusion at the irradiated site using a Perimed PIM 3 laser Doppler perfusion imager (Datavagen, Sweden). The signal generated by the LDA, laser Doppler perfusion index (LDPI), was used for comparative purposes. LDPI is a product of the blood cell velocity and concentration and is represented by a color spectrum, with black/dark blue representing low perfusion and red representing high perfusion. […]
Five images were taken of each mouse, and the average LDPI of the five images was recorded. […]

[1] = system: fat grafts in irradiated scalp; experiment: Fat graft volume retention by micro-CT in DFO preconditioned irradiated scalp (Example 1); assay type: in vivo, mice
Protocol: as §1, §2
Mice were also imaged using a MicroCAT-II in vivo X-Ray micro-CT scanner (Imtek, Inc.; Knoxville, Tenn.) two days after fat graft injection for baseline volume measurements. Fat graft volume retention was then analyzed every two weeks over a total of 8 weeks using microcomputed tomography, and images were reconstructed as three-dimensional surfaces through cubic-spline interpolation. All reconstructions were performed by a single investigator to avoid inter-observer variability.

irradiated scalp skin = experiment: Dermal thickness of irradiated skin, H&E stained sections; assay type: in vivo, mice; settings: after DFO treatment, before fat grafting; saline 256.71±16.76; not significantly less
Protocol: Adult 60-day-old male Crl:NU-Fox1^NU immunocompromised mice were used for experiments in this study. Twelve mice were treated with a total of 30 Gy external beam radiation, delivered as six fractionated doses of 5 Gy each over 12 days, followed by 5 weeks of recovery. An additional six non-irradiated mice were used as healthy controls for laser Doppler analysis (LDA) and skin analysis. Irradiated mice were divided into two treatment groups: a DFO experimental group and saline control group. Following recovery, mice underwent injection of either DFO (1 mg in 100 μl saline) or 100 μl of saline alone beneath the dermis every other day for a total of seven treatments. […] For skin analysis, scalp skin biopsy was harvested from both treatment groups following completion of radiation and then 8 weeks following fat grafting. […] Vascularity was determined with CD31 immunoflourescent staining (1:100 Ab28364; Abcam; Cambridge, Mass. and 1:200 AF547; Thermo Fisher Scientific; Waltham, Mass.) and DAPI counterstaining to visualize cell nuclei. Fluorescent images were obtained using an X-Cite 120 Fluorescence Illumination System (Lumen Dynamics Group, Inc.; Ontario, Canada) at the 20× objective. Quantification of CD31 staining was performed using ImageJ (National Institutes of Health; Bethesda, Md.), with pixel-positive area per high power field measured to determine vascular density (11). […]

[2] = system: inguinal fat pads transplanted to parascapular subcutaneous pockets; settings: DFO injected fat grafts; cited from earlier work

With `CC(=O)N(O)CCCCCNC(=O)CCC(=O)N(O)CCCCCNC(=O)CCC(=O)N(O)CCCCCN` [DFO, Deferoxamine] the “laser Doppler perfusion index at the irradiated scalp” value (irradiated scalp; after four treatments of 1 mg DFO every other day beneath the dermis, 176.70±2.59 after irradiation, 265.23±7.01 pre-radiation baseline, mean±SE) was 205.08±2.30 LDPI, the “laser Doppler perfusion index following fat grafting” value (irradiated scalp; eight weeks following grafting, saline 119.18±4.09, p>0.05) was 127.78±2.29 LDPI and the “laser Doppler perfusion index following fat grafting” value (irradiated scalp; two weeks following injection of fat grafts, saline control 65.72±2.02, p<0.05) was 86.33±2.00 LDPI. For the same compound, the “fat graft volume retention” value ([1]; two weeks after fat grafting, saline control 74.03) was 89.24%, the “fat graft volume retention” value ([1]; week 6 after fat grafting, saline 52.40, p<0.05) was 73.17% and the “fat graft volume retention” value ([1]; week 8 after fat grafting, saline 49.47, p<0.05) was 71.75%. The “dermal thickness of irradiated skin” value (irradiated scalp skin) was 242.09±7.22 μm and the “inflammation and fibrosis in fat grafts” value [2] was “more inflammation and fibrosis”.
